Reference: US12202840B2, “Compounds for the treatment or alleviation of disorders associated with Tau aggregates” (AC Immune SA, priority 2018, dated 2025)

Tests used:
[1] = tested on: human neuroblastoma cell line overexpressing the full-length form of human Tau carrying the P301L mutation; experiment: Reduction of intracellular Tau aggregation (AlphaLISA); type: cell-based; conditions: compound at 5 μM, 24 h; aggregated Tau normalized to total Tau, relative to DMSO-treated cells
Protocol: Reduction of Intracellular Tau Aggregation
A human neuroblastoma cell line overexpressing the full-length form of human Tau carrying the P301L mutation was cultured in complete medium [DMEM-F12 4.5 g/L Glutamax (Invitrogen), 15% FBS (Biochrom), 1% Peni/Strep (Invitrogen) supplemented with 2.5 μg/ml of G418 (Sigma-Aldrich) selection antibiotic]. The day before the experiment 5×10^5 cells/well were plated in a 6 well plate in 3 mL of complete medium. The next day, cells were incubated with DMSO or a compound of the present invention at a 5 μM for additional 24 h at 37° C. After incubation, cells were trypsinized, resupsended in 100 μl of homogenization buffer [25 mM Tris-HCl pH 7.4, 150 mM NaCl, 1 mM EDTA, 1 mM EGTA containing phosphatase inhibitors (30 mM NaF, 0.2 mM Na3VO4, 1 nM Okadaic acid, 1 mM PMSF, 5 mM Na4P2O7) and protease inhibitor cocktail (Complete™, Roche)], and then physically lysed with three rapid cycles of freezing and thawing. Samples were then directly tested in the AlphaLISA assay.
Phosphorylated, aggregated, and total Tau were quantified by AlphaLisa using the following antibody pairs: • HT7-Acceptor beads+biotin (BT)-Tau13-Donor beads: Total Tau • HT7-Acceptor beads+biotin (BT)-HT7-Donor beads: Aggregated human Tau
The Tau13 (Abcam) was biotinylated using EZ-Link® NHS-PEO Solid Phase biotinylation kit (Thermo Scientific), while the HT7-biotin was from a commercial source (Thermo Scientific).
For each antibody pairs the concentration of acceptor beads and biotinylated antibodies was optimized. All samples were first tested in a dilution series in PBS in order to identify the linear range and optimal dilution for each sample and assay. For the final protocol, the following reagents were added in a 384-well white OptiPlate (Perkin Elmer): • 5 μL of test diluted sample • 20 μL of the mixture biotin-mAb acceptor beads at the following final concentrations: • HT7-BT at 1.25 nM in combination with HT7-Acc beads at 10 μg/ml • Tau13-BT at 5 nM in combination with HT7-Acc beads at 2.5 μg/ml
After incubation of this mixture at room temperature for 1 h, 25 μL of Streptavidin Donor beads (Perkin Elmer) at 25 μg/mL were added in the dark. Plates were analyzed after 30 min incubation using the EnSpire Alpha instrument and EnSpire Workstation version 3.00.
Data for aggregated Tau were normalized to total Tau and then expressed as percentage of the DMSO-treated cells.

[2] = biological target: T1, K18 aggregates (Tau K18 fragment, amino acids 244 to 372 of human Tau441) (Homo sapiens, UniProt P10636); experiment: Tau K18 disaggregation assay by ThT; type: biochemical; conditions: 2 μM K18 aggregates, 160 to 0.04 μM compound, 30 minutes RT, ThT fluorescence; read-out: TauK18 disaggregation EC50
T1 construct: encompassing amino acids 244 to 372 of the longest isoform (2N4R) of human Tau441; host or cells: bacteria
T1 sequence (P10636 561-689): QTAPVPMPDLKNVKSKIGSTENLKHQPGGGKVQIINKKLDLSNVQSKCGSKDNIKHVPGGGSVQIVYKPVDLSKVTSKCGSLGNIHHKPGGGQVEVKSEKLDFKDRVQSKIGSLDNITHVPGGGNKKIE
Protocol: Tau K18 Disaggregation Assay by ThT
The Tau K18 fragment, encompassing amino acids 244 to 372 of the longest isoform (2N4R) of human Tau441, was expressed in bacteria and purified or bought from SignalChem. For the K18 disaggregation assay by ThT, 35 μM of recombinant K18 in PBS were aggregated for 24 hours at 37° C. in presence of 50 μM of heparin (Sigma-Aldrich) and 10 mM of DTT (Sigma-Aldrich) under shaking at 750 RPM. Compounds were dissolved in anhydrous dimethyl sulfoxide (DMSO, Sigma-Aldrich) to reach a concentration of 10 mM. K18 aggregates and serial dilutions of compounds were mixed together in PBS (volume 50 μL) to a final concentration of 2 μM of K18 aggregates and from 160 to 0.04 μM of compounds. The mixture was incubated for 30 minutes at room temperature (RT), then 40 μL of this mixture were transferred into a black 384-well plate assay (Perkin-Elmer) and mixed with 10 μL of 100 μM ThT in 250 mM glycine (both from Sigma-Aldrich) in PBS. Fluorescence (relative fluorescence units; RFU) was measured in monoplicate or duplicate on a Tecan reader (excitation: 440 nm; emission: 485 nm). Percentage of K18 disaggregation was then calculated and half maximal effective concentration (EC50) was determined using GraphPad Prism version 5 (GraphPad Software) assuming a one-binding site fitting model.

[3] = biological target: T2, flTau aggregates (longest isoform of human Tau, 2N4R; 441 amino acids) (Homo sapiens, UniProt P10636); experiment: Full-length Tau (flTau) disaggregation assay by Thioflavin T (ThT); type: biochemical; conditions: 2 μM flTau aggregates, 160 to 0.04 μM compound, 30 minutes RT, ThT fluorescence
T2 construct: 35 μM of recombinant full-length (fl)Tau in PBS were aggregated for 24 hours; made in house; host or cells: bacteria
T2 sequence (P10636 1-441 isoform P10636-8): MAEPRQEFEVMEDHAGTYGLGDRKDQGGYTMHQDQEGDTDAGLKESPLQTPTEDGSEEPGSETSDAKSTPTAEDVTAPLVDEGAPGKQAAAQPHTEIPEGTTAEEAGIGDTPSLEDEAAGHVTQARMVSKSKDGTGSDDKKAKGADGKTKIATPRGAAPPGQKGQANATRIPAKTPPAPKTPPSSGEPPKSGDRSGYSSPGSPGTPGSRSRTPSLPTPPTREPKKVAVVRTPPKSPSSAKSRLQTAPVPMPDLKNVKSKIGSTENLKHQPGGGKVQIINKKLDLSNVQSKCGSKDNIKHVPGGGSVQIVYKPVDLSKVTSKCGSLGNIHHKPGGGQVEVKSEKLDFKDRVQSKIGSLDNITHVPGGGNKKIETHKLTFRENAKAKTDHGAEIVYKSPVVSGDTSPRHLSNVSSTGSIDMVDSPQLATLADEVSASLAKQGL
Protocol: Biological Assay Description Full-Length Tau (flTau) Disaggregation Assay by Thioflavin T (ThT)
The longest isoform of human Tau (2N4R; 441 amino acids) was expressed in bacteria and purified. For the Tau disaggregation assay by ThT, 35 μM of recombinant full-length (fl)Tau in PBS were aggregated for 24 hours at 37° C. in presence of 50 μM of heparin (Sigma-Aldrich) and 10 mM of DTT (Sigma-Aldrich) under shaking at 750 RPM. Compounds were dissolved in anhydrous dimethyl sulfoxide (DMSO, Sigma-Aldrich) to reach a concentration of 10 mM.
flTau aggregates and serial dilutions of compounds were mixed together in PBS (volume 50 μL) to a final concentration of 2 μM of flTau aggregates and from 160 to 0.04 μM of compounds. The mixture was incubated for 30 minutes at room temperature (RT), then 40 μL of this mixture were transferred into a black 384-well plate assay (Perkin-Elmer) and mixed with 10 μL of 100 μM ThT in 250 mM glycine (both from Sigma-Aldrich) in PBS. Fluorescence (relative fluorescence units; RFU) was measured in monoplicate or duplicate on a Tecan reader (excitation: 440 nm; emission: 485 nm). Percentage of flTau disaggregation was then calculated and the halfmaximal effective concentration (EC50) was determined using GraphPad Prism version 5 (GraphPad Software) assuming a one-binding site fitting model.

In the case of `CC(C)N1CCc2c(c3ccc(Nc4ccc5nc(N6CCOCC6)sc5c4)nc3n2C)C1` [Example 1], the “% Reduction of intracellular Tau aggregation” value (“% Reduction” for short) [1] is reported as “+ (+ %25 < x < 10)”, the EC50 [2] is reported as 10 to 25 µM and the EC50 [3] is reported as < 10 µM.

`CN(C)[C@@H]1CCc2c(c3ccc(Nc4ccc5sc(N6CCOCC6)nc5c4)nc3n2C)C1` [Example 2] was tested, and the “% Reduction” value [1] was “+ (+ %25 < x < 10)”, the EC50 [2] was < 10 µM and the EC50 [3] was < 10 µM.

In the case of `CN(C)[C@@H]1CCc2c(c3ccc(Nc4ccc5nc(N6CCOCC6)sc5c4)nc3n2C)C1` [Example 12], the “% Reduction” value [1] is reported as “++ (++ %50 < x < 25)”, the EC50 [2] is reported as < 10 µM and the EC50 [3] is reported as < 10 µM.
